Test results: paper PMC10122656, “Siglec-6 mediates the uptake of extracellular vesicles through a noncanonical glycolipid binding pocket” (Nature Communications, 2023)
“And” between values parts separate entries of the source, which are not always exact repeats. Identical values can stand only once.

What was measured:
[1] = target: T1, Siglec-6-Fc WT (Homo sapiens, UniProt O43699); assay: Ganglioside ELISA; type: binding; details: for ganglioside ELISA signal, Siglec-6 WT: Figure 2c, replicates
T1 construct: the Siglecs as Fc chimeras; made in house; host or cells: WT CHO cells
Description: (§1) Siglec-Fc constructs designed by Rodrigues et al.[30] were used in this work. Siglec-Fc constructs were expressed using WT CHO cells in cell culture media as described above with 1% HEPES. Cells incubated as described above for one-week post confluency. The supernatant was harvested and stored at 4 °C.
(§2) The purification was heavily inspired by Rodrigues et al.[30]. The purification of the Siglec-Fcs from supernatant began with Ni^2+ affinity chromatography using an AKTA FPLC equipped with a HisTrap Excel column (GE). The column was equilibrated with fifteen column volumes (CVs) of equilibrium buffer (500 mM NaCl, 20 mM NaPO4H2, pH 7.4). The Siglec-Fc containing supernatant was then loaded in its entirety onto the column. The column was then washed with fifteen CVs of wash buffer (500 mM NaCl, 30 mM imidazole, 20 mM NaPO4H2, pH 7.4). The Siglec-Fc was then eluted in 20 in 1 mL fractions with twenty CVs of elution buffer (500 mM NaCl, 500 mM imidazole, 20 mM NaPO4H2, pH 7.4). Fractions containing Siglec-Fc were compiled and then prepared for the next stage of purification by diluting the fractions 1:4 with buffer W (100 mM Tris–HCl, 150 mM NaCl, 1 mM EDTA, pH 8.0). A Strep-Tactin column (IBA life sciences) was washed with fifteen CVs of buffer W. The Siglec-Fc-buffer W solution was then loaded in its entirety onto the column. The bound Siglec-Fc was then washed with fifteen CVs of buffer W. Siglec-Fc was eluted from the column with 15 column volumes of buffer E (100 mM Tris–HCl, 150 mM NaCl, 1 mM EDTA, 10 mM d-Desthiobiotin, pH 8.0). Fractions containing Siglec-Fc were pooled and dialyzed against PBS to remove any d-Desthiobiotin. After dialysis, Siglec-Fcs were concentrated using an ultra-centrifugal device (30 kDa MWCO) and aliquoted into 5 µg aliquots, and frozen. The Siglec-Fcs were then lyophilized overnight, and the lyophilized Siglec-Fcs were stored at −20 °C.
(§3) Our ELISA approach was carried out similarly to previous work by Rapoport[12] and Yamakawa[44]. Ganglioside ethanol solutions (10 µM) were prepared and then transferred in 50 µL increments to a 96-well microplate. The ethanol was removed by drying the plates overnight at room temperature. The plates were then washed with PBS, dried, and then blocked with 5% (m/V) BSA PBS for 1 h. The plates were then washed with PBS and then 2 µg/mL Siglec-Fc precomplexed to Strep-Tactin (2 Siglec-Fc:1 Strep-Tactin monomer) horse radish peroxidase was added to the microplate. The complex was incubated with the plate at room temperature for 2 h. The unbound complexes were then removed by washing in PBS and the plate was developed with Sera care TMB solution. The amount of binding was then quantified by using the background (microplate well with no ligand) subtracted absorbance at 450 nm using a Molecular Devices SpectraMAX ® iD5.

[2] = target: T2, Siglec-7-Fc R124A (Homo sapiens, UniProt Q9Y286, R124A); assay: Ganglioside ELISA; type: binding; details: Figure 2c, replicates
T2 construct: the Siglecs as Fc chimeras; made in house; host or cells: WT CHO cells
Description: as §1, §2, §3

[3] = target: T3, Siglec-7-Fc WT (Homo sapiens, UniProt Q9Y286); assay: Ganglioside ELISA; type: binding; details: Figure 2c, replicates
T3 construct: the Siglecs as Fc chimeras; made in house; host or cells: WT CHO cells
Description: as §1, §2, §3

[4] = target: Siglec-1-Fc WT (Homo sapiens, UniProt Q9BZZ2); assay: Ganglioside ELISA; type: binding; details: Figure 2c, replicates
Description: as §1, §2, §3

[5] = target: T4, R122A Siglec-6-Fc (Homo sapiens, UniProt O43699, R122A); assay: Ganglioside ELISA; type: binding; details: Figure 2c, replicates
T4 construct: the Siglecs as Fc chimeras; made in house; host or cells: WT CHO cells
Description: as §1, §2, §3

[6] = test system: untransfected (UT) CHO cells; assay: Cell assay (liposome/EV binding, flow cytometry); type: cell-based, Chinese Hamster; details: UT; 3 mol% ganglioside liposomes; replicates
Description: (§4) Stock lipids (DSPC, Cholesterol, PEG45–DSPE) solutions were prepared by solvating the lipids in chloroform. An appropriate volume of each lipid solution was transferred to a glass test tube to reach the desired mol% of the component. The chloroform was then removed under N2 gas to yield a lipid thin film. Once dry, 100 µL of DMSO was added to the lipid-containing test tube and then the functional lipids (ganglioside, AF647–PEG45–DSPE, Siglec ligand–PEG45–DSPE, pHrodo–PEG45–DSPE, NGL) was added from their respect DMSO stock solution. The lipid mixture was then stored at −80 °C until completely frozen at which point excess DMSO was removed via lyophilization. Dry lipids were then stored at −80 °C until they were extruded. Lipid suppliers can be found in Supplementary Table 4.
(§5) Dry lipids were then hydrated in 1 mL of PBS. The lipids were then sonicated in a bath sonicator in a cycle of 1 min on, 5 min off for a total of five cycles. Liposomes were then extruded using an Avanti mini extruder first using an 800 nm filter and then a 100 nm filter yielding liposomes that were 130 ± 35 nm (Supplementary Table 5) measured using a Malvern Panalytical Zetasizer Nano S. Liposomes were stored at 4 °C.
(§6) 200,000 cells/well were plated into a 96-well U-bottom microplate and centrifuged at 300 × g for 5 min. The cells were then resuspended in 50 µL of 50 µM liposome/50 µg/mL (protein concentration) of EV solution in DMEM F12 5% FBS and incubated at 37 °C for 30 min. Excess liposomes were then removed via centrifuged at 300 × g for 5 min followed by washing the cells with FACS solution. The cells were then resuspended in (1:250 V/V) anti-Siglec-flow buffer (1% V/V FBS, 500 µM, EDTA Hank’s Balanced Salt Solution pH 7.4), solution and left to rest on ice for 30 min. The cells were then centrifuged again at 300 × g for 5 min and the cells were resuspended in FACS buffer solution and were then ready for analysis by flow cytometry. Information regarding antibody clone, catalog number supplier, label isotype, and dilution can be found in Supplementary Table 6. The Siglec-positive cells were gated on for liposome-binding analysis (Supplementary Fig. 1b).
(§7) Flow cytometry measurements were collected on a 5-laser Fortessa X-20 (BD Bioscience). All the resulting data were analyzed using FlowJo (10.5.3) software (BD Biosciences).

[7] = target: T5, Siglec-8 WT CHO cells (Homo sapiens, UniProt Q9NYZ4); assay: Cell assay (liposome/EV binding, flow cytometry); type: cell-based; details: Sig-8 WT; 3 mol% ganglioside liposomes; replicates
T5 construct: expressed in transfected cells
Description: as §4, §5, §6, §7

[8] = target: T6, WT Siglec-1 CHO cells (Homo sapiens, UniProt Q9BZZ2); assay: Cell assay (liposome/EV binding, flow cytometry); type: cell-based; parameters: GM1 liposome binding to Siglec-1 CHO cells, flow cytometry (Fig. 1b) / Binding of liposomes with increasing ganglioside content against Siglec-1 CHO cells (Fig. 1c) / Liposome binding to Siglec-1-expressing CHO cells in the cell assay (Fig. 1f): unit not given here; details: for Binding of liposomes with increasing ganglioside content against Siglec-1 CHO cells (Fig. 1c) / log10(MFI AF647) of GLL relative to log10(MFI AF647) of the same GLL against UT CHO cells (Fig. 2a): replicates; for log10(MFI AF647) of GLL relative to log10(MFI AF647) of the same GLL against UT CHO cells (Fig. 2a): Sig-1 WT, 3 mol% ganglioside liposomes
T6 construct: expressed in transfected cells
Description: as §4, §5, §6, §7

T5 sequence (Q9NYZ4 17-499): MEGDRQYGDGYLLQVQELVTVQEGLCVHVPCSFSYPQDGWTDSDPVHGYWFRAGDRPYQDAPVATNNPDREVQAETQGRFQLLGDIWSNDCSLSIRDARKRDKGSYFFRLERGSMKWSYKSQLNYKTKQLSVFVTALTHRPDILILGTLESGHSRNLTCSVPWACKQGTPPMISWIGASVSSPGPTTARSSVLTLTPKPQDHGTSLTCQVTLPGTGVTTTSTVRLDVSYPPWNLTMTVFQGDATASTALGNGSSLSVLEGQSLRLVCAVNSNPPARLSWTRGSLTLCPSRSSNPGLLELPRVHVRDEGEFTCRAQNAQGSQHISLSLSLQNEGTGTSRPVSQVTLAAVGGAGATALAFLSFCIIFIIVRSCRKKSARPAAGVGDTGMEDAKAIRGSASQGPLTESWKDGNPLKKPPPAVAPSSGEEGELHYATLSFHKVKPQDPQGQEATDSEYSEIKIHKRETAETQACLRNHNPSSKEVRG
T1 sequence (O43699 27-347 limits assumed): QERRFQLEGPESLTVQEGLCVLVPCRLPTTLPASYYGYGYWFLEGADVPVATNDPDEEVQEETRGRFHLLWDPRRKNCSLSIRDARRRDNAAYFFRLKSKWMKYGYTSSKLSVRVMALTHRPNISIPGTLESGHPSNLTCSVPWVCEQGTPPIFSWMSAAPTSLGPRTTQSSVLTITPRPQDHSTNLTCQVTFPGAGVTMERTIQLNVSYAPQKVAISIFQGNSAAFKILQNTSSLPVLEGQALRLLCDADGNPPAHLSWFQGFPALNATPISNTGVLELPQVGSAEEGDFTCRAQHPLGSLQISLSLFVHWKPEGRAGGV
T6 sequence (Q9BZZ2 20-1709): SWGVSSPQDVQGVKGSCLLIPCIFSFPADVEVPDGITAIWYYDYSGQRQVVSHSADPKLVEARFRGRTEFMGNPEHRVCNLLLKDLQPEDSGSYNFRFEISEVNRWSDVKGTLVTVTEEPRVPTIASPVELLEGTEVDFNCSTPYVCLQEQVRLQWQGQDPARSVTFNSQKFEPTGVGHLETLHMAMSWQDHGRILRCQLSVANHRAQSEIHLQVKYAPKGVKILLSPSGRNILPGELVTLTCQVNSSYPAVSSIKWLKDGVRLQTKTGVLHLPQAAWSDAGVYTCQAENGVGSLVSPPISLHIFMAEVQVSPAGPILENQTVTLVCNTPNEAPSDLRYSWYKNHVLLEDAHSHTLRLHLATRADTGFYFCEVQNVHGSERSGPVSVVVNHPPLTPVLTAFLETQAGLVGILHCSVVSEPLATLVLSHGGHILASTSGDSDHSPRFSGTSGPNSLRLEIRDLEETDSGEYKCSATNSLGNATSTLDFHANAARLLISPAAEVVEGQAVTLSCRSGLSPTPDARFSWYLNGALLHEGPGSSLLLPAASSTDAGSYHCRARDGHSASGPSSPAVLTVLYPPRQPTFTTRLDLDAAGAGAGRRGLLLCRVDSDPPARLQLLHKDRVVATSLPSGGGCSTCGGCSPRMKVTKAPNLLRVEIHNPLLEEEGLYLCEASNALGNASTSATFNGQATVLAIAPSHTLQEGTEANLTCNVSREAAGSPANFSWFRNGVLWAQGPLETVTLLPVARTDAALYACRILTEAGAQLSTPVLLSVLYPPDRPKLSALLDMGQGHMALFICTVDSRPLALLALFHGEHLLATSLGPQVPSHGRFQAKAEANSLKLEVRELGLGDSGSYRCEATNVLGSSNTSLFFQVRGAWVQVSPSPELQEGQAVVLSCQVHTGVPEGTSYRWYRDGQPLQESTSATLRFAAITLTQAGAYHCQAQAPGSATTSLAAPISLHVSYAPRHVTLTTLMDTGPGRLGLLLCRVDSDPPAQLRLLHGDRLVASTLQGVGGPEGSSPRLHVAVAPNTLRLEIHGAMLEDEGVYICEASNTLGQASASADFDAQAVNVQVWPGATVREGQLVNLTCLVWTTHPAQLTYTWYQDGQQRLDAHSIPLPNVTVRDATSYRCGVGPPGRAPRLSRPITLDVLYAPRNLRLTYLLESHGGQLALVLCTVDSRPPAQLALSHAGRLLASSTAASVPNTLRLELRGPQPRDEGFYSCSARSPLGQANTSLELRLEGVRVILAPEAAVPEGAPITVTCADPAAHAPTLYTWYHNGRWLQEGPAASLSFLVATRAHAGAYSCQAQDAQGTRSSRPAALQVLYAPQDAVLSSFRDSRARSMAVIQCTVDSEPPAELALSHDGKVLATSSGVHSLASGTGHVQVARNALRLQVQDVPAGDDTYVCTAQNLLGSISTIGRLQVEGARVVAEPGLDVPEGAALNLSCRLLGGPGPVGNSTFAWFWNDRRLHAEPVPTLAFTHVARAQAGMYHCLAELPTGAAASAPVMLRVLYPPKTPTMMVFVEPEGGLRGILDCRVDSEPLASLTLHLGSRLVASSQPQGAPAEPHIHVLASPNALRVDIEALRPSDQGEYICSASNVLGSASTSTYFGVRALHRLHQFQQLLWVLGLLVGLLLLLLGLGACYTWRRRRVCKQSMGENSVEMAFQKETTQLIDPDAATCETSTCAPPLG
T2 sequence (Q9Y286 19-353 R124A limits assumed): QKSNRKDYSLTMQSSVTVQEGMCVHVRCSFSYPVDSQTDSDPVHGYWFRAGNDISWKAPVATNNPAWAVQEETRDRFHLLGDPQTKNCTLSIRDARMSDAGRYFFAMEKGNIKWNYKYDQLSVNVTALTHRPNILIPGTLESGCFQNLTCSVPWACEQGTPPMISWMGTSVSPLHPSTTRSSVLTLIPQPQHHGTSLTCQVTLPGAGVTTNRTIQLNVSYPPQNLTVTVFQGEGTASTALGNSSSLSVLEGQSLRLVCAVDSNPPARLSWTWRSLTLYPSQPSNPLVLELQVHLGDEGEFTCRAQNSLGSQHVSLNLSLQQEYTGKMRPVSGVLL
T3 sequence (Q9Y286 19-353 limits assumed): as the sequence (Q9Y286 19-353 R124A limits assumed) above, with A106R counted along it
T4 sequence (O43699 27-347 R122A limits assumed): as the sequence (O43699 27-347 limits assumed) above, with R96A counted along it
Chain of Siglec-1-Fc WT (Q9BZZ2 20-136 limits assumed): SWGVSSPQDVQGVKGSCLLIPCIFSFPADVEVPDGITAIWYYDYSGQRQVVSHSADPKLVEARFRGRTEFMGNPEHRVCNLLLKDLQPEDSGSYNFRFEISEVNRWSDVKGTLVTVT

Row | Substance | ganglioside ELISA signal, Siglec-6 WT [1] | ganglioside ELISA signal, Siglec-7 R [2] | ganglioside ELISA signal, Siglec-7 WT [3] | ganglioside ELISA signal, Siglec-1 WT [4] | ganglioside ELISA signal, Siglec-6 R [5] | log10(MFI AF647) of GLL relative to log10(MFI AF647) of the same GLL against UT CHO cells (Fig. 2a) [6] | log10(MFI AF647) of GLL relative to log10(MFI AF647) of the same GLL against UT CHO cells (Fig. 2a) [7] | Binding of liposomes with increasing ganglioside content against Siglec-1 CHO cells (Fig. 1c) ([8]; 0.00187 Ligand/nm2) | Binding of liposomes with increasing ganglioside content against Siglec-1 CHO cells (Fig. 1c) ([8]; 0.00933 Ligand/nm2) | Binding of liposomes with increasing ganglioside content against Siglec-1 CHO cells (Fig. 1c) ([8]; 0.0187 Ligand/nm2) | Binding of liposomes with increasing ganglioside content against Siglec-1 CHO cells (Fig. 1c) ([8]; 0.056 Ligand/nm2) | Binding of liposomes with increasing ganglioside content against Siglec-1 CHO cells (Fig. 1c) ([8]; 0.0933 Ligand/nm2) | Binding of liposomes with increasing ganglioside content against Siglec-1 CHO cells (Fig. 1c) ([8]; 0.373 Ligand/nm2) | log10(MFI AF647) of GLL relative to log10(MFI AF647) of the same GLL against UT CHO cells (Fig. 2a) [8] | ganglioside content threshold above which GLL binding to Siglec-1 CHO cells decreased ([8]; ganglioside titrated in GLLs) | ELISA recognition of adsorbed ganglioside by Siglec-6 (in words) ([1]; ganglioside adsorbed to microplate, outside a bilayer) | Binding of liposomes with increasing ganglioside content against Siglec-1 CHO cells (Fig. 1c) ([8]; 0.187 Ligand/nm2) | trend of GLL binding to Siglec-1 CHO cells with ganglioside content ([8]; ganglioside titrated in GLLs)
1 | GM2 | 0 and 0.04 and 0.02 and 0.03 | -0.01 and 0 and -0.02 | 0.12 and 0.09 and 0.1 and 0.06 | 0.89 and 1.09 and 1.03 and 1.06 | 0.04 and 0.05 and 0.06 and 0.07 | 0.1 and 0.05 (2×) and 0.06 | -0.18 (2×) and -0.15 and -0.17 | -0.01 | 0.11 (2×) and 0.13 and 0.16 | 1.01 and 0.97 and 1 and 1.02 | 0.8 and 0.79 and 0.78 (2×) | 0.59 and 0.57 and 0.55 (2×) | 0.24 and 0.22 (3×) | 1.23 and 1.19 and 1.21 and 1.2 | 1–3 mol% |  |  | 
2 | GM3 | 0.27 and 0.3 and 0.26 | -0.02 and 0 | 0.61 and 0.6 and 0.68 and 0.7 | 0.99 and 1.04 and 1.15 and 1.05 | 0.34 and 0.37 and 0.41 and 0.4 | 0.01 (2×) and -0.01 and 0 | -0.22 and -0.18 and -0.2 and -0.17 |  |  | 0 | 0.02 | 0.04 | 0.33 and 0.36 and 0.26 | 0.19 and 0.16 and 0.23 and 0.17 |  | interacted weakly | 0.13 (2×) and 0.12 and 0.14 and 0.16 (4×) | progressive increase in GLL binding up to 20 mol%
